Test results taken from patent US7666677B2, “Production of stilbenes in plant hairy root cultures” (priority 2006, dated 2010).
Several values for one entry are separate records, joined by “and”; a condition that tells them apart may be missing. Identical values can stand only once.

Key:
[1] = tested on: hairy root cultures of peanut cv. Andru II; assay: Elicitation of peanut hairy root cultures, TLC/HPTLC of ethyl acetate extracts of the medium; type: cell-based, Arachis hypogaea; settings: for fluorescent compounds induced in culture medium (TLC, UV 365 nm): all cv. Andru II hairy root lines tested, 12-day cultures, 600 μM copper sulfate or 10.2 mM sodium acetate; for fluorescent compounds induced in culture medium (TLC, UV 365 nm) / fluorescent products induced in culture medium (TLC): 24 hours; for fluorescent products induced in culture medium (TLC): line 2, 12-day culture, sodium acetate 10.2 mM, chitosan 10 mg/L, copper sulfate 600 μM, laminarin 1 mg/ml, cellulase 1 or 10 μg/ml; for color change of the root tissue and medium: lines 2, 3, 5 and 6 of cv. Andru II, elicitors applied 24 hours
Protocol: Establishment of hairy root cultures. Seeds of peanuts (Arachis hypogaea) cvs. Andru II and Hull (kindly provided by Dr. Daniel Gorbet, University of Florida) were surface sterilized as follows. Seeds were presoaked for 2 minutes in sterile water containing 0.003% Ivory™ detergent; immersed for 15 minutes in sterilization solution (50% Clorox™, 0.003% Ivory™ detergent) and rinsed in sterile water. To minimize Chlorox™ damage to the embryo, the test was aseptically removed and seeds were further rinsed in two changes of sterile water over a 15 minute period. Disinfected seeds were placed individually on plates containing B5 medium to allow emergence of the radicle and to screen for viable healthy seedlings. Germinated seedlings were transferred to Magenta™ boxes containing B5 medium and allowed to grow in continuous light at 28° C. for 15 to 21 days. Explants used for hairy root production were harvested following expansion of two true leaves.
Cotyledon, hypocotyl, leaf blade, stem and petiole explants were evaluated. Whole, intact plantlets were also tested. […] Intact seedlings and isolated explants were then evaluated for response to Agrobacterium infection. Three strains of Agrobacterium were tested: A. rhizogenes ATCC 15834, A. rhizogenes R1000 and A. tumefaciens EHA105 containing pRYG (containing rolA, rolB and rolC genes, Komarnytsky et al., 2004) plasmid. The latter plasmid was kindly provided by Dr. Ilya Raskin (Rutgers University, New Jersey) and mobilized into A. tumefaciens by freeze-thaw method (Holsters et al., 1978). Intact seedlings were inoculated with agrobacteria at the stem, petiole, or cotyledonary node. All other isolated explants were inoculated via epidermal incisions as described before (Medina-Bolivar et al., 2003; Medina-Bolivar and Cramer, 2004). Inoculated intact seedlings and explants were maintained in B5 medium plates under constant light at 28° C. Hairy roots developed at the inoculation site were harvested and transferred to B5 medium plates containing 600 mg/l cefotaxime, and maintained at 28° C. under continuous darkness. Roots were subcultured twice in this medium prior to transfer to antibiotic-free medium. Liquid hairy root cultures were established by inoculating ten 1-cm root tips into 250 ml flasks containing 50 ml of B5 medium. Roots were subcultured every 2 weeks and maintained on an orbital shaker at 90 rpm, 28° C. and continuous darkness.
(§1) Elicitation of hairy root cultures. […] All elicitors were dissolved in water and filter sterilized, except for chitosan which was dissolved in 1 M acetic acid. Following elicitation, all media was collected and frozen at −20° C. All root tissue was collected, fresh weight recorded and roots then rapidly frozen in liquid nitrogen prior to storage at −80° C. Controls included hairy root cultures incubated 24 hours with equivalent volumes of water or acetic acid as well as non-elicited media samples collected from the 12-day hairy root cultures prior to initiating the elicitation procedure. […] Media and root tissue were collected, processed and stored as outlined above.
(§2) Extraction of resveratrol from culture medium. Media samples were thawed (50 ml) and partitioned with 30 ml ethyl acetate in a separatory funnel. The organic phase was recovered and dried to completeness under nitrogen stream using a RapidVap N2 evaporation system (Labconco) at 40° C. and 40% rotor speed. These dried samples were resuspended in 50 μl of ethyl acetate for further analysis.
Qualitative TLC analysis. Aliquots of the extracts and pure, authentic standards of trans-resveratrol (Sigma Co, St. Louis, Mo.), polydatin—same chemical as piceid—(ChromaDex, Santa Ana, Calif.), pterostilbene (Sigma) and piceatannol (Sigma) were spotted on a 20×20 cm silica gel 60 CF254 TLC plates (Merck) or a 10×10 silica gel 60 CF254 HPTLC plates (Merck).

[2] = Solubility of resveratrol in organic solvents; type: physicochemical
Excerpt: Qualitative analyses of elicited peanut hairy root cultures. In an effort to rapidly assess the various hairy root lines for resveratrol production and secretion into the culture medium, we adapted a thin layer chromatographic method (TLC) that leverages the fluorescent nature of resveratrol at defined excitation wavelengths (Nepote et al., 2004). In a preliminary experiment, the culture medium was lyophilized to completeness and the dried medium was resuspended in methanol. This extract produced a very viscous solution which was difficult to resolve by TLC. In addition, the high content of carbohydrates in this sample appeared to bind the phenolic compounds (i.e. resveratrol). In an effort to overcome these issues, we optimized the purification of resveratrol in the culture medium by determining the solubility of resveratrol in various organic solvents. […] Initial analyses of the ethyl acetate extracts of hairy root media were compared by TLC to pure authentic references standards of trans-resveratrol and piceid. […] Andru II hairy root lines tested. The strongest fluorescent chemical was detected in the medium of sodium acetate-elicited hairy roots and generated an Rf of 0.83 corresponding to that of authentic trans-resveratrol. […]

[3] = tested on: hairy root cultures of N. benthamiana
Excerpt: Seeds of Nicotiana benthamiana were surface sterilized and germinated on MS semi-solid medium. Axillary nodes were harvested from the axenic seedlings and used to establish plantlets. The latter were then micropropagated in MS medium and leaves from these plantlets were used as explants for Agrobacterium rhizogenes inoculations. Leaves were harvested from 2-3 week old plantlets and placed on B5 medium. The leaves were inoculated in the midrib with A. rhizogenes ATCC 15834. Two to 3 weeks after inoculation hairy roots initiated at the inoculation site. The roots were then transferred to B5 medium with cefotaxime to eliminate agrobacteria. After several subcultures in this medium, the roots were transferred to antibiotic-free B5 medium. Confirmation of transformation with A. rhizogenes was done by PCR. […]
To test for elicitation of stilbenes (pinosylvin, resveratrol and their derivatives), hairy root cultures of N. benthamiana lines 3NB, 4NB, 5NB and 6NB were grown for either 2 or 3 weeks as described above. […] Stilbenes were detected with a coupled diode away and fluorescence (excitation 330 nm; emission 374 nm) detector.
Further analyses were conducted by reverse phase HPLC. […] Stilbenes were detected with coupled diode array and fluorescence (excitation 330 nm; emission 374 nm) detectors. […] These compounds were further analyzed by HPLC-ESI-mass spectrometry.

[4] = tested on: peanut hairy roots derived from the Hull cultivar; settings: 10.2 mM sodium acetate, 24 hours, medium extract
Protocol: Using the materials and methods outlined above, resveratrol and resveratrol derivatives were elicited in the peanut hairy roots derived from the Hull cultivar. […] Control roots were not elicited. Elicited hairy root of peanut cv. Andru II (line pRYG-J) and cv. Hull s were cultured in B5 medium. […] Analysis was done under UV light (254 and 365 nm).

[5] = tested on: hairy root cultures of peanut, line 2
Protocol: as §1, §2
Quantitative analysis of resveratrol and pterostilbene by GC-MS. Dried medium or root tissue extracts (0.1 mg) were derivatized with 500 μL of a mixture of bis (trimethylsilyl)trifluoroacetamide:dimethyl formamide (1:1), heated at 70° C. for 40 min. After cooling to room temperature, samples were analyzed by gas chromatography/mass spectrometry (GC-MS) on a JEOL GCMate II system (JEOL USA, Inc., USA). […] The GC capillary column used was DB-5 (0.25 mm i.d., 0.25 […], 30 m length; Agilent Technologies, USA). The carrier gas was ultra high purity helium (nexAir, USA), 1 mL/min flow rate. The inlet (splitless), GC interface, and ion chamber temperatures were 250° C., 250° C., and 230° C., respectively. The injection volume was 2 μL.
Quantitative analysis of resveratrol and pterostilbene by GC-MS. […] Cis- and trans-resveratrol were monitored for m/z 444 (and 429, 207, 147 as qualifier ions). Cis- and trans-pterostilbene were monitored for m/z 328 (and 313, 296, 156 as qualifier ions). Quantitation was performed using external standards of a commercial sample of trans-resveratrol (Sigma) and a synthetic sample of trans-pterostilbene (synthesized from methylation of resveratrol). The cis isomers were obtained by UV-irradiation (λ 306 nm) of an ethanolic solution the trans isomers (1 mg/mL) for 24 hours.
Laboratory recovery of stilbenes. […] Therefore we have calculated resveratrol recoveries based on the dry weight (DW) of the ethyl acetate extract of the culture media.

[6] = tested on: hairy roots of muscadine grape; settings: 10.2 mM sodium acetate, 24 hours, medium extract
Protocol: PCR analyses of hairy roots of muscadine grape (Vitis rotundifolia) cvs. Roots were analyzed for the presence of rol C and aux 2 genes. Hairy roots were cultured in B5 medium. […] Analysis was done under UV light (365 nm).

[7] = line 2, 15-day culture, 48 hours after elicitation

Question: With O=S(=O)([O-])[O-].[Cu+2] [copper sulfate] as the compound, how does the “fluorescent compounds induced in culture medium (TLC, UV 365 nm)” value [1] read?
Answer: induced production of blue fluorescent compounds

Question: What about the “fluorescent products induced in culture medium (TLC)” value (shortened to “fluorescent products induced”) [1] of the same compound?
Answer: induced a fluorescent chemical of Rf 0.73

Question: What about the “color change of the root tissue and medium” value [1] of the same compound?
Answer: induced the browning on the tissue and of the medium

Question: Which “solubility of resveratrol in ethyl acetate” value [2] does the source give for Oc1ccc(/C=C/c2cc(O)cc(O)c2)cc1 [resveratrol, trans-3,4′,5-trihydroxystilbene] here?
Answer: good solubility

Question: What does the source list for CC(=O)[O-].[Na+] [sodium acetate]?
Answer: fluorescent compounds induced in culture medium (TLC, UV 365 nm) [1]: induced production of blue fluorescent compounds; fluorescent products induced in culture medium (TLC) [1]: induced two products; presence of resveratrol in culture medium, time course [1, 7]: decreased; pterostilbene levels in culture medium, time course [1, 7]: increased; trans-resveratrol and pterostilbene levels in culture medium, time course ([1]; line 2, 15-day culture, 72 hours post elicitation): decreased; sodium acetate concentration with the most effective response (dose response, HPTLC) ([1]; line 2, 24 hours, 0 to 51 mM tested): about 10 mM; color change of the root tissue and medium [1]: did not affect the color of the roots; induced compound by reverse phase HPLC ([3]; 24 and 48 hours after elicitation): induced production of a major fluorescence compound; production and secretion of stilbene-like fluorescent compounds (HPTLC) ([3]; lines 3NB, 4NB, 5NB, 6NB, 10.2 mM sodium acetate, 24 or 48 hours): induced production and secretion of compounds with fluorescent characteristics of stilbene compounds; production of resveratrol and derivatives (HPTLC) [4]: induced the production of resveratrol and derivatives; increase of resveratrol above non-elicited culture extracts ([5]; culture medium extracts): ~60 fold; cis-resveratrol levels in elicited cultures, root tissue (average) ([5]; elicited cultures): 10 ng/mg root tissue extract; trans-resveratrol remaining in the root tissue ([5]; elicited cultures): 0.2-1.1 μg/mg extract DW; trans-Resveratrol, Medium ([5]; elicited cultures, ethyl acetate extract of medium, mean of two determinations): 97992 ng per mg extract and 85282 ng per mg extract and 50339 ng per mg extract; cis-Resveratrol, Root tissue ([5]; elicited cultures, extract of root tissue, mean of two determinations): 10 ng per mg extract; production rate of trans-resveratrol per gram DW of root tissue ([5]; estimating 6 mg medium ethyl acetate extract per gram root tissue DW): 300 to 588 µg; share of total trans-resveratrol secreted into the culture medium ([5]; sodium acetate elicitation): approximately 99%; elicitation of resveratrol and derivatives (HPTLC) [6]: achieved

Question: For cellulase, which “fluorescent products induced” value [1] is on record?
Answer: no fluorescent chemicals were detected

Question: Which “fluorescent products induced” value [1] does the source give for chitosan here?
Answer: induced the two products as observed for sodium acetate elicitation

Question: With laminarin as the compound, how does the “fluorescent products induced” value [1] read?
Answer: induced production of a blue fluorescent chemical with an Rf 0.78
